The assay concerns the target T1, human vasopressin V2 receptor subtype (Homo sapiens, UniProt P30518).
T1 construct: host or cells: CHO cells, stably transfected (pZeoSV vector); membranes
In words: Vasopressin binding in CHO cell membranes expressing human vasopressin V2 subtype receptors ([3H]arginine vasopressin). Particulars: 100 nM, values without parentheses. The text has this:
Vasopressin Binding in Chinese Hamster Ovary Cell Membranes Expressing Human Vasopressin V2 Subtype Receptors
Chinese Hamster Ovary (CHO) cells stably transfected with the human V2 subtype receptors were obtained from M. Thibonnier, Case Western Reserve University School of Medicine, Cleveland, Ohio.
A. Passaging and Amplification of Cells:
CHO cells transfected with the human vasopressin V2 subtype receptors obtained from M. Thibonnier (pZeoSV vector) are allowed to grow to confluency (approx. >90%) in T-150 flasks under sterile conditions, in a cell culture medium of F-12 Nutrient Mixture (HAM) with L-glutamine (Gibco Cat. #11765-054) containing 15 mM HEPES (Gibco Cat. #15630-080), 1% antibiotic/antimycotic (add 5 mL 100×, Gibco Cat. #15240-062 per 500 mL F-12), 250 μg/mL Zeocin (add 1.25 mL of 100 mg/mL Invitrogen R-250-01 per 500 mL F-12) and 10% Fetal Bovine Serum (Qualified, heat inactivated, Gibco Cat. #16140-063). The medium is removed by aspiration and the cells washed with 10 mL of Hank's Balanced Salt solution (Gibco Cat. #14175-095). The salt solution is removed by aspiration and the cells trypsinized with 5 mL of trypsin-EDTA (0.05% trypsin, 0.53 mM EDTA-4Na, Gibco Cat. #25300-070) for 1 min. The trypsin is removed by aspiration and the cells dislodged by tapping. Cell Culture medium (e.g. 30 mL for 1:30 split) is immediately added and mixed well to inactivate trypsin. 1 mL of detached cells is added to new culture flasks containing fresh Cell Culture medium (e.g. into 25 mL per T-150 flask), and mixed gently. The cells are incubated at 37° C. in 5% CO2. The medium is changed at 3 to 4 day interval (or as appropriate). The cells grow to confluency (approx. >75%–95%) within 7–8 days. All steps are done under sterile conditions. B. Membrane Preparation: The cells are washed twice gently with Hank's Balanced Salt solution (e.g. use 10 mL per T-150 flask). The excess solution is removed and the cells bathed for 15–30 min. in an enzyme-free Cell Dissociation Buffer (e.g. use 8 mL Hank's Based, Gibco Cat. # 13150-016 per T-150 flask) until cells are loosened. The contents are transferred to centrifuge tubes (50 mL size) kept in ice bath. All subsequent steps are done at 4° C. The tubes are centrifuged at 300×g for 15 min (1380 rpm on SORVAL, Model RT6000D, using rotor for 50 mL tubes). The supernatant is discarded and the cells suspended in homogeneizing buffer (10 mM Tris-HCl containing 0.25 M sucrose and 1 mM EDTA, pH 7.4) ensuring that the volume of the buffer is about ten times the volume of the cell pellet. The cells are pooled into a centrifuge tube (50 mL) and homogenized with Polytron at setting 6 for 10 sec. The homogenate is transferred into a Potter-Elvjehm homogeneizer and homogenized with 3 strokes. The homogenate is centrifuged at 1500×g for 60 min at 4° C. (3100 rpm using SORVAL, model RT6000D, using rotor for 50 mL tubes). The pellet is discarded. The supernatant is centrifuged at 100,000×g for 60 min. at 4° C. (Beckman L8-80M ultracentrifuge; spin at 37,500 rpm with rotor type 70 Ti for 50 mL tubes; 38,000 rpm with type 80Ti for 15 mL tubes; or 35,800 rpm with rotor type 45Ti). The supernantant is discarded and the pellet suspended in 3 to 4 mL of Tris buffer (50 mM TRIS-HCl, pH 7.4). The protein content is estimated by the Bradford or Lowry method. The volume of the membrane suspension is adjusted with the membrane buffer (50 mM Tris-HCl containing 0.1% BSA and 0.1 mM PMSF) to give 3.0 mg/mL (or as appropriate) of protein. The membranes are aliquoted and stored at −70° C. C. Radioligand Binding Assay:
In wells of a 96-well format microtiter plate, is added 90, 110 or 130 μL (to make up a final volume of 200 μL) of assay buffer containing 50 mM of Tris-HCl (pH 7.4), […], 1 mg % aprotinin, 1 mg % leupeptin, 2 mg % 1,10-phenanthroline, 10 mg % trypsin inhibitor, and 0.1 mM PMSF. The inhibitors are added on the day of the experiment. […]
T1 sequence (P30518 whole entry): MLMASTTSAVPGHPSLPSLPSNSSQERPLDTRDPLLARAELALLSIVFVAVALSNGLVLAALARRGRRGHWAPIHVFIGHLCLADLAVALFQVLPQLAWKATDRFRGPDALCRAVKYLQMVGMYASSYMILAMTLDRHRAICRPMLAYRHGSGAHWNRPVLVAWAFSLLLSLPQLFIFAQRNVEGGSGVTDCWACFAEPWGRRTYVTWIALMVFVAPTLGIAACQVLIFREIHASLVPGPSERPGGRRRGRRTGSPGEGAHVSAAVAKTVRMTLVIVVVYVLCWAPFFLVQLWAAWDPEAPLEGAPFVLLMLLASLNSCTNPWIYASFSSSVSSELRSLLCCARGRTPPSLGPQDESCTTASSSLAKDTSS
For `CC1(C)C=C(c2ccc(C(=O)N3Cc4cccn4Cc4ccccc43)cc2)CC(C)(C)C1` [Example 23, (10,11-Dihydro-5H-pyrrolo[2,1-c][1,4]benzodiazepin-10-yl)-[4-(3,3,5,5-tetramethyl-cyclohex-1-en-1-yl)-phenyl]-methanone], the inhibition at 0.1 µM was found to be 18%.
On to `O=C1C=C(c2ccc(C(=O)N3Cc4cccn4Cc4ccccc43)cc2)CCC1` [Example 24, 3-[4-(10,11-Dihydro-5H-pyrrolo[2,1-c][1,4]benzodiazepine-10-carbonyl)-phenyl]-cyclohex-2-en-1-one], for which the inhibition at 0.1 µM was found to be 29%.
The same measure for `O=C(c1ccc(C2=CC(O)CCC2)cc1)N1Cc2cccn2Cc2ccccc21` (stereo not drawn) [Example 25, (10,11-Dihydro-5H-pyrrolo[2,1-c][1,4]benzodiazepin-10-yl)-[4-(3-hydroxy-cyclohex-1-en-1-yl)-phenyl]-methanone]: 39%.
As for `CC1=C(c2ccc(C(=O)N3Cc4cccn4Cc4ccccc43)cc2)CCCC1=O` [Example 26, 3-[4-(10,11-Dihydro-5H-pyrrolo[2,1-c][1,4]benzodiazepine-10-carbonyl)-phenyl]-2-methyl-cyclohex-2-en-1-one], the inhibition at 0.1 µM worked out at 58%.
The same measure for `CC1=C(c2ccc(C(=O)N3Cc4cccn4Cc4ccccc43)cc2)CCCC1O` (stereo not drawn) [Example 27, (10,11-Dihydro-5H-pyrrolo[2,1-c][1,4]benzodiazepin-10-yl)-[4-(3-hydroxy-2-methyl-cyclohex-1-en-1-yl)-phenyl]-methanone]: 58%.
The same measure for `Cc1cc(C(=O)N2Cc3cccn3Cc3ccccc32)ccc1C1=CCCCC1C` (stereo not drawn) [Example 29, (10,11-Dihydro-5H-pyrrolo[2,1-c][1,4]benzodiazepin-10-yl)-[3-methyl-4-(6-methyl-cyclohex-1-en-1-yl)-phenyl]-methanone]: 13%; for `Cc1cc(C(=O)N2Cc3cccn3Cc3ccccc32)ccc1C1=CCCCC1(C)C` [Example 30, (10,11-Dihydro-5H-pyrrolo[2,1-c][1,4]benzodiazepin-10-yl)-[4-(6,6-dimethyl-cyclohex-1-en-1-yl)-3-methyl-phenyl]-methanone]: 13%.
The same measure for `CC1=C(c2ccc(C(=O)N3Cc4cccn4Cc4ccccc43)cc2C)C(C)CCC1` (stereo not drawn) [Example 33, (10,11-Dihydro-5H-pyrrolo[2,1-c][1,4]benzodiazepin-10-yl)-[4-(2,6-dimethyl-cyclohex-1-en-1-yl)-3-methyl-phenyl]-methanone]: 0%; for `Cc1cc(C(=O)N2Cc3cccn3Cc3ccccc32)ccc1C1=CCCCC1C(C)(C)C` (stereo not drawn) [Example 34, (10,11-Dihydro-5H-pyrrolo[2,1-c][1,4]benzodiazepin-10-yl)-[4-(6-tert-butyl-cyclohex-1-en-1-yl)-3-methyl-phenyl]-methanone]: 4%.
As for `Cc1cc(C(=O)N2Cc3cccn3Cc3ccccc32)ccc1C1=CCC2CCC1C2` (stereo not drawn) [Example 35, (10,11-Dihydro-5H-pyrrolo[2,1-c][1,4]benzodiazepin-10-yl)-(4-bicyclo[3.2.1]oct-2-en-2-yl-3-methyl-phenyl)-methanone], the inhibition at 0.1 µM was determined as 18%.
As to `Cc1cc(C(=O)N2Cc3cccn3Cc3ccccc32)ccc1C1=CCC2CC1C2(C)C` (stereo not drawn) [Example 36, (10,11-Dihydro-5H-pyrrolo[2,1-c][1,4]benzodiazepin-10-yl)-[4-(6,6-dimethyl-bicyclo[3.1.1]hept-2-en-2-yl)-3-methyl-phenyl]-methanone], the inhibition at 0.1 µM stood at 3%.
The same measure for `Cc1cc(C(=O)N2Cc3cccn3Cc3ccccc32)ccc1C1=CC(C)(C)CC(C)(C)C1` [Example 37, (10,11-Dihydro-5H-pyrrolo[2,1-c][1,4]benzodiazepin-10-yl)-[3-methyl-4-(3,3,5,5-tetramethyl-cyclohex-1-en-1-yl)-phenyl]-methanone]: 20%.

A word on the inhibition: it is the drop in the measured response relative to a control, in per cent.

The record behind these values is patent US7022699B2, “Cyclohexenyl phenyl diazepines vasopressin and oxytocin receptor modulators” (Wyeth, priority 2001, dated 2006).
